Measured values published in patent US11185593B2, “Alkylating agent for alkylating target with driver oncogene mutation” (Chiba Prefecture, priority 2013, dated 2021).

Columns and labels:
IMR-32 cells = test: Cytotoxicity test, Cell Counting Kit-8, 72 hours; assay type: cell-based; details: Homo sapiens
Procedure: (§1) The experiment was carried out in the same manner as that in the case of using KR12. The cells used in the experiment were Kelly cells, SK-N-SH cells, IMR-32 cells, SK-N-AS cells, and MDA-MB-231 cells. These cells were cultured in a DMEM, 10% FBS and 1% Pen/St medium, and in an RPMI1640, 10% FBS and 1% Pen/St medium, respectively. The cells of each type were seeded in each well of a 96-well plate at a cell density of 1000 cells/50 μl/well, and were then cultured under conditions of 37° C., 5% CO2, and saturated humidity for 24 hours. Thereafter, a reagent was diluted with a medium (final concentration: 1, 3, 10, 30, and 100 nM), and the diluted reagent was then added to the cultured cells in an amount of 50 μl/well, and the obtained mixture was then blended. The thus obtained mixture was cultured again under conditions of 37° C., 5% CO2, and saturated humidity for 72 hours. Thereafter, Cell Counting Kit-8 (DOJINDO) was added to the obtained culture in an amount of 10 μl/well, and the thus obtained mixture was blended and was then cultured under conditions of 37° C., 5% CO2, and saturated humidity for 2 hours. The absorbance was measured using Microplate Reader MTP-310 Lab (COLONA ELECTORIC), and the IC50 value was then calculated.
as §1, with “were” for “were Kelly cells, SK-N-SH cells,”, “cells” for “cells, SK-N-AS cells,”, “TGW” for “MDA-MB-231”

SK-N-AS cells = test: Cytotoxicity test, Cell Counting Kit-8, 72 hours; assay type: cell-based; details: Homo sapiens, wild-type ALK neuroblastoma
Procedure: as §1

SK-N-SH cells = test: Cytotoxicity test, Cell Counting Kit-8, 72 hours; assay type: cell-based; details: Homo sapiens, ALK F1174L neuroblastoma
Procedure: as §1

Kelly cells = test: Cytotoxicity test, Cell Counting Kit-8, 72 hours; assay type: cell-based; details: ALK F1174L neuroblastoma
Procedure: as §1

MDA-MB-231 cells = test: Cytotoxicity test, Cell Counting Kit-8, 72 hours; assay type: cell-based; details: Homo sapiens, MDA-MB-231, breast cancer
Procedure: as §1, with “Thereafter, Cell Counting Kit-8 (DOJINDO) was added to the obtained culture in an amount of 10 μl/well, and the thus obtained mixture was blended and was then cultured under conditions of 37° C., 5% CO2, and saturated humidity for 2 hours.” left out
The experiment was carried out in the same manner as that in the case of using KR12. […] The absorbance was measured using Microplate Reader MTP-310 Lab (COLONA ELECTORIC), and the IC50 value was then calculated.

LS180 cells = test: Cytotoxicity test, WST-8 (cell counting kit-8), 48 hours; assay type: cell-based, human; details: LS180 cells
Procedure: Using LS180 colon cell line, the cells were seeded in each well of a 96-well microplate, resulting in a cell density of 3000 to 5000 cells/well, and they were then cultured overnight. On the following day, KR12 recognizing a codon 12 mutation, WT recognizing wild-type KRAS, and C12-Dp having the same structure as that of KR12, to which an alkylating agent had not been added, were each added to the cultured cells in concentrations of 1 nM, 10 nM, 30 nM, 100 nM, 300 nM, and 1 μM, and were then treated for 48 hours. Thereafter, a WST-8 reagent was added to each well, using cell counting kit-8 (DOJINDO), and the obtained mixture was then reacted for 2 hours. After that, the number of cells was counted at a wavelength of 450 nm according to a colorimetric analysis method using a microplate reader. The method of counting the number of cells comprises: 1) obtaining the mean value of the medium alone, 2) subtracting the mean value of the medium from each well, 3) obtaining the mean value of DMSO, 4) dividing the medium-subtracted value by the mean value of DMSO and then multiplying by 100, 5) obtaining the mean value of each treatment group and a standard deviation, and then preparing a graph. The calculation formula of IC50 is the following: IC50=10 (LOG (A/B)×(50−C)/(D−C)+LOG (B)), wherein A: a higher concentration of two concentrations sandwiching 50%, B: a lower concentration of two concentrations sandwiching 50%, C: inhibitory percentage at B, and D: inhibitory percentage at A.
Using colon cancer and pancreatic cancer cell lines, the cells were seeded in each well of a 96-well microplate, resulting in a cell density of 3000 to 5000 cells/well, and they were then cultured overnight. On the following day, the cells of each type were treated with KR12 recognizing a codon 12 mutation in concentrations of 1 nM, 10 nM, 30 nM, 100 nM, 300 nM, and 1 μM for 48 hours. Thereafter, a WST-8 reagent was added to each well, using cell counting kit-8, and the obtained mixture was then reacted for 2 hours. After that, the number of cells was counted at a wavelength of 450 nm according to a colorimetric analysis method using a microplate reader. The method of counting the number of cells comprises: 1) obtaining the mean value of the medium alone, 2) subtracting the mean value of the medium from each well, 3) obtaining the mean value of DMSO, 4) dividing the medium-subtracted value by the mean value of DMSO and then multiplying by 100, 5) obtaining the mean value of each treatment group and a standard deviation, and then preparing a graph. […]

TGW cells = test: Cytotoxicity test, Cell Counting Kit-8, 72 hours; assay type: cell-based; details: TGW cells, 1 to 100 nM, FIG. 33
Procedure: as §1, with “were” for “were Kelly cells, SK-N-SH cells,”, “cells” for “cells, SK-N-AS cells,”, “TGW” for “MDA-MB-231”

MCF7 cells = test: Cytotoxicity test, Cell Counting Kit-8, 72 hours; assay type: cell-based; details: Homo sapiens, MCF7, breast cancer, PIK3CA E545K, FIG. 27A
Procedure: as §1, with “MCF7 cells” for “Kelly cells, SK-N-SH cells, IMR-32 cells, SK-N-AS cells,”

[1] = Body weight and health condition of treated nude mice; assay type: in vivo; details: nude mice with SW480 cells; FIG. 15; seco CBI 8.4 mmol
Procedure: The below-mentioned 3 types of PBS solutions containing each type of cells were subcutaneously transplanted into the femurs of nude mice (i.e., HT29 into 7 mice, LS180 into 7 mice, and SW480 into 6 mice), and thereafter, at a time point in which a tumor adhered to the living body of each mouse and the tumor volume became approximately 100 mm^3, a drug was prepared with a composition of 3.4 mmol KR12 (1.36 mM KR12 dissolved in 2.5 μL of DMSO and 197.5 μL of PBS), or of a DMSO/PBS control (2.5 μL of DMSO and 197.5 μL of PBS). The prepared drug was subjected to sonication for 10 minutes, and 200 μL of the drug was administered to each mouse via the caudal vein thereof. The body weight and the tumor size were measured once three days, and the size of the tumor was measured by the method of 0.52×L×W×D(1/6×π×L×W×D).
Using, as controls, PIP-indole-seco-CBI (KR13) not recognizing a codon 12 mutation and 8.4 mmol seco CBI (3.36 mM CBI dissolved in 2.5 μL of DMSO and 197.5 μL of PBS), instead of the DMSO/PBS control, an experiment was carried out by the same method as that of the above section 11.

CC(=O)Nc1cc(C(=O)Nc2cc(C(=O)Nc3cc(C(=O)Nc4cc(C(=O)NCCC(=O)Nc5cc(C(=O)Nc6cc(C(=O)Nc7cc(C(=O)NCCCC(=O)Nc8cn(C)c(C(=O)Nc9cn(C)c(C(=O)NCCC(=O)Nc%10cn(C)c(C(=O)Nc%11cn(C)c(C(=O)Nc%12cc(C(=O)Nc%13ccc%14[nH]c(C(=O)N%15CC(CCl)c%16c%15cc(O)c%15ccccc%16%15)cc%14c%13)n(C)c%12)n%11)n%10)n9)n8)n(C)c7)n(C)c6)n(C)c5)n(C)c4)n(C)c3)n(C)c2)n(C)c1 (stereo not shown) [ALK-FL-1]
IC50 (IMR-32 cells; IMR-32, IMR32, wild-type ALK neuroblastoma): 0.46 nM
IC50 (SK-N-AS cells): 2.6 nM
IC50 (SK-N-SH cells): 0.13 nM
IC50 (Kelly cells): 0.09 nM
IC50 (MDA-MB-231 cells; wild-type ALK gene): 7.5 nM

CC(=O)Nc1cn(C)c(C(=O)Nc2cn(C)c(C(=O)NCCC(=O)Nc3cn(C)c(C(=O)Nc4cn(C)c(C(=O)Nc5cc(C(=O)Nc6cn(C)c(C(=O)NCCCC(=O)Nc7cc(C(=O)Nc8cn(C)c(C(=O)NCCC(=O)Nc9cc(C(=O)Nc%10cc(C(=O)Nc%11ccc%12[nH]c(C(=O)N%13CC(CCl)c%14c%13cc(O)c%13ccccc%14%13)cc%12c%11)n(C)c%10)n(C)c9)n8)n(C)c7)n6)n(C)c5)n4)n3)n2)n1 (stereo not shown) [WT]
IC50 (LS180 cells; Homo sapiens, WST-8, FIG. 8, read-out: IC50): 193 nM

CC(=O)Nc1cc(C(=O)Nc2cn(C)c(C(=O)Nc3cc(C(=O)NCCC(=O)Nc4cn(C)c(C(=O)Nc5cc(C(=O)NCCCC(=O)Nc6cc(C(=O)Nc7cc(C(=O)NCCC(=O)Nc8cc(C(=O)Nc9ccc%10[nH]c(C(=O)N%11CC(CCl)c%12c%11cc(O)c%11ccccc%12%11)cc%10c9)n(C)c8)n(C)c7)n(C)c6)n(C)c5)n4)n(C)c3)n2)n(C)c1 (stereo not shown) [MYCNA2]
IC50 (TGW cells): 11.2 nM
IC50 (IMR-32 cells; IMR-32 cells, 1 to 100 nM, FIG. 33): 12.1 nM

CC(=O)Nc1cn(C)c(C(=O)Nc2cc(C(=O)NCCC(=O)Nc3cn(C)c(C(=O)Nc4cn(C)c(C(=O)Nc5cc(C(=O)Nc6cn(C)c(C(=O)NCCCC(=O)Nc7cc(C(=O)Nc8cn(C)c(C(=O)NCCC(=O)Nc9cc(C(=O)Nc%10cc(C(=O)Nc%11ccc%12[nH]c(C(=O)NCCC(=O)N(C)C)cc%12c%11)n(C)c%10)n(C)c9)n8)n(C)c7)n6)n(C)c5)n4)n3)n(C)c2)n1 [C12-Dp]
suppression of the cell growth (LS180 cells; 1 nM to 1 μM, FIG. 8): suppression of the cell growth was not observed

CC(=O)Nc1cc(C(=O)Nc2cc(C(=O)Nc3cn(C)c(C(=O)NCCC(=O)Nc4cc(C(=O)Nc5cn(C)c(C(=O)Nc6cn(C)c(C(=O)NCCCC(=O)Nc7cc(C(=O)Nc8cc(C(=O)NCCC(=O)Nc9cn(C)c(C(=O)Nc%10cc(C(=O)Nc%11ccc%12[nH]c(C(=O)N%13CC(CCl)c%14c%13cc(O)c%13ccccc%14%13)cc%12c%11)n(C)c%10)n9)n(C)c8)n(C)c7)n6)n5)n(C)c4)n3)n(C)c2)n(C)c1 (stereo not shown) [P3A-E5K-2]
IC50 (MCF7 cells): > 100 nM

Oc1cc2c(c3ccccc13)C(CCl)CN2 (stereo not shown) [seco-CBI, 1-chloromethyl-5-hydroxy-1,2-dihydro-3H-benzo[e]indole]
tendency of body weight reduction [1]: the tendency of body weight reduction, which was observed

CC(=O)Nc1cc(C(=O)Nc2cc(C(=O)Nc3cn(C)c(C(=O)Nc4cc(C(=O)NCCC(=O)Nc5cn(C)c(C(=O)Nc6cn(C)c(C(=O)NCCCC(=O)Nc7cc(C(=O)Nc8cc(C(=O)NCCC(=O)Nc9cn(C)c(C(=O)Nc%10cc(C(=O)Nc%11ccc%12[nH]c(C(=O)N%13CC(CCl)c%14c%13cc(O)c%13ccccc%14%13)cc%12c%11)n(C)c%10)n9)n(C)c8)n(C)c7)n6)n5)n(C)c4)n3)n(C)c2)n(C)c1 (stereo not shown) [P3A-E5K-1]
IC50 (MCF7 cells): 53.8 nM
IC50 (MDA-MB-231 cells; wild-type PIK3CA gene, FIG. 27B): > 100 nM
